A short description of data set [1]: Thermal stability experiments under vacuum, solid phase by PXRD. The class given is physicochemical. To be noted: 40° C., 1 mbar, different periods of time. The procedure:
Further advantages of polymorphic form R-5 arose from the significant good thermal stability that has shown over time. […] Thermal stability experiments were performed in a Binder Vacuum oven VD53 using the following methodology. Samples of from R-5 of Rufinamide were kept under vacuum, at 40° C. for different periods of times (at 1 mbar), see table 3 below. There were no significant differences in the PXRD patterns of the solids obtained after the thermal treatment.

Data set [2] can be described thus: Grinding experiments in a ball mill, solid phase by PXRD. The class given is physicochemical. To be noted: with solvent or without solvent. The procedure:
Grinding experiments were performed in a Retsch MM400 Ball Mill using the following methodology: samples of 30 mg of phase R-5 of Rufinamide were grinded at a frequency of 20 s^−1 for 15 min, with a drop of solvent and without solvent.

Regarding `NC(=O)c1cn(Cc2c(F)cccc2F)nn1` [R-5, 1-(2,6-difluorobenzyl)-1H-1,2,3-triazole-4-carboxamide], the “Change of polymorphic form under accelerated degradation (thermal stability)” value in data set [1] is recorded as “No changes in polymorphic form”. The “Change of polymorphic form by grinding” value in data set [2] is recorded as “does not change”.
